According to US20210267197A1, “PEPTIDES SIMILAR TO THE NATURAL PEPTAIBOL TRICHOGIN GA IV WITH PHYTOSANITARY ACTIVITIES” (UNIVERSITA' DEGLI STUDI DI PADOVA, priority 2018, published 2021):

Experiments:
Botrytis cinerea [1] = test: B. cinerea spore viability / germination assay with resazurin; assay type: cell-based; conditions: for Concentration effective in vitro in inhibiting the germination of fungal spores with respect to the untreated control for at least 3 days: Botrytis cinerea; for Time for which spore germination of B. cinerea is inhibited: limited by duration of the experiment
Pyricularia oryzae = assay type: cell-based
Penicillium expansum = test: In vitro inhibition of fungal spore germination, Penicillium expansum; assay type: cell-based; conditions: for Concentration effective in vitro in inhibiting the germination of fungal spores with respect to the untreated control for at least 3 days: Penicillium expansum; for Time for which spore germination of P. expansum is inhibited: peptide at 15 μM, limited by duration of the experiment
Penicillium italicum = test: In vitro inhibition of fungal spore germination, Penicillium italicum; assay type: cell-based; conditions: for Concentration effective in vitro in inhibiting the germination of fungal spores with respect to the untreated control for at least 3 days: Penicillium italicum; for Time for which spore germination of Penicillium italicum is inhibited: peptide at 15 μM, limited by duration of the experiment
Botrytis cinerea [2] = test: Bean leaves inoculated with Botrytis cinerea; assay type: in vivo
Plasmopara viticola = conditions: for Prevention of development of the disease and production of sporangia of P. viticola: 50 μM aqueous solution, disks of vine leaves
Procedure: The histogram represents the average incidence (±standard error) of infections from P. viticola 12 days after inoculation obtained by performing at least 3 independent biological replicates. […] The incidence is calculated as a percentage ratio of the leaf disks showing the sporulation of the pathogen compared to the total of inoculated disks.
Glera vine leaves were inoculated with sporangia from the oomycete Plasmopara viticola, the causal agent of vine peronospora. The disks infected and then treated with peptides were incubated at 20/22° C. in conditions of high humidity (>92% RH) and in the dark (optimal conditions for the development of the disease) until the end of the experiment.

Penicillium digitatum = test: In vitro inhibition of fungal spore germination, Penicillium digitatum; assay type: cell-based; conditions: for Concentration effective in vitro in inhibiting the germination of fungal spores with respect to the untreated control for at least 3 days: Penicillium digitatum; for Time for which spore germination of P. digitatum is inhibited: peptide at 15 μM, limited by duration of the experiment
B. cinerea = test: Rot symptoms from B. cinerea on vine leaves; assay type: in vivo, Botrytis cinerea; conditions: 50 μM
Fusarium graminearum = assay type: cell-based

Substance: 1-octanoyl-Aib-Gly-Leu-Aib-Lys(HCl)-Lys(HCl)-Leu-Aib-Gly-Ile-Lol [PEP4]
- Germination of conidia of B. cinerea (Botrytis cinerea [1]; 50 μM, conidia 5×10^5/ml in PDB): germination of the conidia is not observed
- Concentration effective in vitro in inhibiting the germination of fungal spores with respect to the untreated control for at least 3 days (Botrytis cinerea [1]): 3 µM
- Time for which spore germination of B. cinerea is inhibited (Botrytis cinerea [1]; peptide at 3 μM): at least 7 days
- Concentration effective in vitro in inhibiting the germination of fungal spores with respect to the untreated control for at least 3 days (Pyricularia oryzae): 15 µM
- Inhibition of spore germination of Pyricularia oryzae (Pyricularia oryzae; 15 μM): effectively inhibit the spore germination
- Concentration effective in vitro in inhibiting the germination of fungal spores with respect to the untreated control for at least 3 days (Penicillium expansum): 15 µM
- Concentration effective in vitro in inhibiting the germination of fungal spores with respect to the untreated control for at least 3 days (Penicillium italicum): 15 µM
- Protection of bean leaves against infection by Botrytis cinerea (Botrytis cinerea [2]; 50 μM aqueous solution, for at least seven days (duration of the experiment)): protects the bean leaves against the infection caused by Botrytis cinerea
- Incidence of the disease (leaf disks showing sporulation / total inoculated disks) (Plasmopara viticola; 30 μM, 12 days after inoculation): < 20%
- Prevention of development of the disease and production of sporangia of P. viticola (Plasmopara viticola): almost completely prevents both the development of the disease and the production of sporangia
- Time of protection against P. viticola (no disease / no sporangia) (Plasmopara viticola; 50 μM, limited by duration of the experiment): 15 days
- Concentration effective in vitro in inhibiting the germination of fungal spores with respect to the untreated control for at least 3 days (Penicillium digitatum): 15 µM

Substance: 1-octanoyl-Aib-Gly-Leu-Aib-Lys(HCl)-Lys(HCl)-Leu-Lol [PEP4-corto]
- Concentration effective in vitro in inhibiting the germination of fungal spores with respect to the untreated control for at least 3 days (Botrytis cinerea [1]): 3 µM
- Prevention of development of the disease and production of sporangia of P. viticola (Plasmopara viticola): almost completely prevents the development of the disease and the production of sporangia

Substance: 1-octanoyl-Aib-Gly-Leu-Aib-Gly-Lys(HCl)-Leu-Aib-Gly-Ile-Lol [Peptide K6-Lol]
- Concentration effective in vitro in inhibiting the germination of fungal spores with respect to the untreated control for at least 3 days (Botrytis cinerea [1]): 15 µM
- Concentration effective in vitro in inhibiting the germination of fungal spores with respect to the untreated control for at least 3 days (Penicillium expansum): 15 µM
- Concentration effective in vitro in inhibiting the germination of fungal spores with respect to the untreated control for at least 3 days (Penicillium digitatum): 15 µM

Substance: 1-octanoyl-Aib-Lys(HCl)-Lys(HCl)-Leu-Aib-Gly-Ile-Leu-NH2 [PEP4-corto2-rink]
- Time for which spore germination of B. cinerea is inhibited (Botrytis cinerea [1]; peptide at 15 μM, listed as Pep4-corto2-rink): 8 days
- Time for which spore germination of P. expansum is inhibited (Penicillium expansum; listed as Pep4-corto2-rink): 15 days
- Concentration effective in vitro in inhibiting the germination of fungal spores with respect to the untreated control for at least 3 days (Penicillium italicum): 15 µM
- Time for which spore germination of Penicillium italicum is inhibited (Penicillium italicum; listed as Pep4-corto2-rink): 15 days
- Time for which spore germination of P. digitatum is inhibited (Penicillium digitatum; listed as Pep4-corto2-rink): 15 days

Substance: 1-octanoyl-Aib-Gly-Leu-Aib-Lys(HCl)-Lys(HCl)-Leu-Aib-Gly-Ile-Leu-NH2 [PEP4-rink]
- Concentration effective in vitro in inhibiting the germination of fungal spores with respect to the untreated control for at least 3 days (Botrytis cinerea [1]): 3 µM
- Time for which spore germination of B. cinerea is inhibited (Botrytis cinerea [1]; peptide at 3 μM): at least 14 days
- Time for which spore germination of B. cinerea is inhibited (Botrytis cinerea [1]; peptide at 15 μM): at least 21 days
- Concentration effective in vitro in inhibiting the germination of fungal spores with respect to the untreated control for at least 3 days (Penicillium expansum): 15 µM
- Reduction in the incidence of rot symptoms from B. cinerea on vine leaves (B. cinerea): 70%
- Reduction in the incidence of rot symptoms from B. cinerea on bean leaves (Botrytis cinerea [2]; 15 μM, 7 days after inoculation): 90%
- Reduction in the incidence of B. cinerea (rot symptoms) on bean leaves (Botrytis cinerea [2]; 50 μM): 95%
- Concentration effective in vitro in inhibiting the germination of fungal spores with respect to the untreated control for at least 3 days (Fusarium graminearum): 15 µM
- Concentration effective in vitro in inhibiting the germination of fungal spores with respect to the untreated control for at least 3 days (Penicillium digitatum): 15 µM

Substance: 1-octanoyl-Aib-Gly-Leu-Aib-Lys(HCl)-Lys(HCl)-Leu-Leu-NH2 [PEP4-corto1-rink]
- Time for which spore germination of P. expansum is inhibited (Penicillium expansum): for 6 days (duration of the experiment)
- Time for which spore germination of P. expansum is inhibited (Penicillium expansum; listed as Pep4-cortol-rink): 6 days
- Concentration effective in vitro in inhibiting the germination of fungal spores with respect to the untreated control for at least 3 days (Penicillium italicum): 15 µM
- Time for which spore germination of Penicillium italicum is inhibited (Penicillium italicum): for 6 days (duration of the experiment)
- Time for which spore germination of Penicillium italicum is inhibited (Penicillium italicum; listed as Pep4-cortol-rink): 6 days
- Time for which spore germination of P. digitatum is inhibited (Penicillium digitatum): for 6 days (duration of the experiment)
- Time for which spore germination of P. digitatum is inhibited (Penicillium digitatum; listed as Pep4-cortol-rink): 6 days

Substance: 1-octanoyl-Aib-Lys(HCl)-Leu-Aib-Lys(HCl)-Gly-Leu-Aib-Gly-Ile-Lol [Peptide K25]
- Concentration effective in vitro in inhibiting the germination of fungal spores with respect to the untreated control for at least 3 days (Penicillium digitatum): 15 µM
- Time for which spore germination of P. digitatum is inhibited (Penicillium digitatum): of Penicillium digitatum for more than 5 days
